These results are taken from patent US10092537B2, “Use for PAI-1 inhibitor” (RENASCIENCE CO., LTD., priority 2013, dated 2018).

Sequence of human PAI-1 (P05121 24-402): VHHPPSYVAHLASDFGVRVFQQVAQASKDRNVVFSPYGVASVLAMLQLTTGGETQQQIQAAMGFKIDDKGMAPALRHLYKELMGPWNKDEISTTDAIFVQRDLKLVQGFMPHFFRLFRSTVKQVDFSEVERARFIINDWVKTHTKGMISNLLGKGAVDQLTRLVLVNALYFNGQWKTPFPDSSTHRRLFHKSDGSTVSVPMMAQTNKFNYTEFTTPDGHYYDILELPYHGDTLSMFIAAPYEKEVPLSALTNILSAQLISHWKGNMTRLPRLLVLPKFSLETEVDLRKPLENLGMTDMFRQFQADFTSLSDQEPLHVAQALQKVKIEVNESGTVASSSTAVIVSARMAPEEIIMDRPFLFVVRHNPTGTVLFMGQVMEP

The assay has as its target human PAI-1 (Homo sapiens, UniProt P05121). Description: Measurement of PAI-1 inhibitory activity of compound group 1 (t-PA, Spectrozyme t-PA chromogenic substrate). Particulars: read-out: PAI-1 activity %.
As for `O=C(COc1cccc(-c2ccoc2)c1)Nc1ccc(Br)cc1C(=O)O` [Example 15, 5-bromo-2-({[3-(furan-3-yl)phenoxy]acetyl}amino)benzoic acid], the activity at 2.5 µM was determined as 87.3% and the activity at 10 µM is 3%.

Take `CC(C)(C)c1cccc(OCC(=O)Nc2ccc(Cl)cc2C(=O)O)c1` [Example 16, 2-{[(3-tert-butylphenoxy)acetyl]amino}-5-chlorobenzoic acid]: the activity at 2.5 µM turned out to be 77.4% and the activity at 10 µM was 21.9%.

Regarding `O=C(COc1ccccc1C1CCCCC1)Nc1ccc(Cl)cc1C(=O)O` [Example 17, 5-chloro-2-{[(2-cyclohexylphenoxy)acetyl]amino}benzoic acid], the activity at 2.5 µM was 52.8% and the activity at 10 µM was determined as 0.8%.

With `CC(C)(C)c1ccc(OCC(=O)Nc2ccc(Cl)cc2C(=O)O)cc1` [Example 18, 2-{[(4-tert-butylphenoxy)acetyl]amino}-5-chlorobenzoic acid], the activity at 2.5 µM was determined as 81.4% and the activity at 10 µM came out at 16.1%.

Take `O=C(COc1ccc(-c2ccccc2)cc1)Nc1ccc(Cl)cc1C(=O)O` [Example 19, 2-{[(biphenyl-4-yloxy)acetyl]amino}-5-chlorobenzoic acid]: the activity at 2.5 µM was determined as 72.4% and the activity at 10 µM was found to be 2.5%.

As for `O=C(COc1cccc(-c2ccccc2)c1)Nc1ccc(Cl)cc1C(=O)O` [Example 20, 2-{[(biphenyl-3-yloxy)acetyl]amino}-5-chlorobenzoic acid], the activity at 2.5 µM was 55.7% and the activity at 10 µM was determined as 1.9%.

Turning to `O=C(COc1ccc(C23CC4CC(CC(C4)C2)C3)cc1)Nc1ccc(Cl)cc1C(=O)O` [Example 21, 2-({[4-(adamantan-1-yl)phenoxy]acetyl}amino)-5-chlorobenzoic acid], the activity at 2.5 µM amounted to 10% and the activity at 10 µM stood at 0.3%.

As to `O=C(COc1cccc(-c2ccoc2)c1)Nc1ccc(-c2ccccc2)cc1C(=O)O` [Example 22, 4-({[3-(furan-3-yl)phenoxy]acetyl}amino)biphenyl-3-carboxylic acid], the activity at 2.5 µM was determined as 29.9% and the activity at 10 µM worked out at 0.4%.

With `Cn1c(C(=O)Nc2ccc(Cl)cc2C(=O)O)cc2cc(Br)ccc21` [Example 23, 2-{[(5-bromo-1-methyl-1H-indol-2-yl)carbonyl]amino}-5-chlorobenzoic acid], the activity at 2.5 µM was 97.3% and the activity at 10 µM amounted to 1.8%.

On to `O=C(Cn1ccc2cc(Br)ccc21)Nc1ccc(Cl)cc1C(=O)O` [Example 24, 2-{[(5-bromo-1H-indol-1-yl)acetyl]amino}-5-chlorobenzoic acid], for which the activity at 2.5 µM was 102% and the activity at 10 µM was determined as 19.1%.

As for `O=C(COc1cccc(C2=CCCCC2)c1)Nc1ccc(Cl)cc1C(=O)O` [Example 25, 5-chloro-2-({[3-(cyclohex-1-en-1-yl)phenoxy]acetyl}amino)benzoic acid], the activity at 2.5 µM stood at 85.8% and the activity at 10 µM is 0%.

`O=C(COc1cccc(C2CCCCC2)c1)Nc1ccc(Cl)cc1C(=O)O` [Example 26, 5-chloro-2-{[(3-cyclohexylphenoxy)acetyl]amino}benzoic acid]: the activity at 2.5 µM is 98% and the activity at 10 µM worked out at 0.6%.

`Cc1cccc(-c2ccc(NC(=O)COc3cccc(-c4ccoc4)c3)c(C(=O)O)c2)c1` [Example 27, 4-({[3-(furan-3-yl)phenoxy]acetyl}amino)-3′-methylbiphenyl-3-carboxylic acid]: the activity at 2.5 µM amounted to 69.1% and the activity at 10 µM came to 0.7%.

Take `Cc1cc(C)cc(-c2ccc(NC(=O)COc3cccc(-c4ccoc4)c3)c(C(=O)O)c2)c1` [Example 28, 4-({[3-(furan-3-yl)phenoxy]acetyl}amino)-3′,5′-dimethylbiphenyl-3-carboxylic acid]: the activity at 2.5 µM stood at 33.6% and the activity at 10 µM came out at 0.5%.

Regarding `O=C(COc1ccc(-c2ccoc2)cc1)Nc1ccc(Cl)cc1C(=O)O` [Example 29, 5-chloro-2-({[4-(furan-3-yl)phenoxy]acetyl}amino)benzoic acid], the activity at 2.5 µM turned out to be 93.2% and the activity at 10 µM came out at 24.3%.

Take `O=C(COc1cccc(C23CC4CC(CC(C4)C2)C3)c1)Nc1ccc(Cl)cc1C(=O)O` [Example 30, 2-({[3-(adamantan-1-yl)phenoxy]acetyl}amino)-5-chlorobenzoic acid]: the activity at 2.5 µM stood at 19.3% and the activity at 10 µM was determined as 1.3%.

In the case of `O=C(O)c1cc(Cl)ccc1NC(=O)C1CCCN(C(=O)c2cccc(-c3ccccc3)c2)C1` (stereo not drawn) [Example 31, 2-({[1-(biphenyl-3-ylcarbonyl)piperidin-3-yl]carbonyl}amino)-5-chlorobenzoic acid], the activity at 2.5 µM was 88% and the activity at 10 µM amounted to 20.2%.

As to `Cc1ccc(-c2cccc(C(=O)Nc3ccc(Cl)cc3C(=O)O)c2)cc1` [Example 32, 5-chloro-2-{[(4′-methylbiphenyl-3-yl)carbonyl]amino}benzoic acid], the activity at 2.5 µM worked out at 94.4% and the activity at 10 µM is 1.7%.

`COc1ccccc1-c1cccc(C(=O)Nc2ccc(Cl)cc2C(=O)O)c1` [Example 33, 5-chloro-2-{[(2′-methoxybiphenyl-3-yl)carbonyl]amino}benzoic acid]: the activity at 2.5 µM amounted to 92.8% and the activity at 10 µM stood at 21.6%.

Consider `O=C(Nc1ccc(Cl)cc1C(=O)O)c1ccc(C2=CCOCC2)cc1` [Example 34, 5-chloro-2-({[4-(3,6-dihydro-2H-pyran-4-yl)phenyl]carbonyl}amino)benzoic acid], for which the activity at 2.5 µM is 97.1% and the activity at 10 µM stood at 45.1%.

As to `O=C(O)c1cc(Cl)ccc1NC(=O)C1(c2cccc(-c3ccoc3)c2)CC1` [Example 35, 5-chloro-2-[({1-[3-(furan-3-yl)phenyl]cyclopropyl}carbonyl)amino]benzoic acid], the activity at 2.5 µM was determined as 98.8% and the activity at 10 µM turned out to be 15.6%.

Regarding `O=C(CCc1cccc(-c2ccoc2)c1)Nc1ccc(Cl)cc1C(=O)O` [Example 36, 5-chloro-2-({3-[3-(furan-3-yl)phenyl]propanoyl}amino)benzoic acid], the activity at 2.5 µM came to 95.7% and the activity at 10 µM was 3.7%.

As to `CC(C)(C(=O)Nc1ccc(Cl)cc1C(=O)O)c1cccc(-c2ccoc2)c1` [Example 37, 5-chloro-2-({2-[3-(furan-3-yl)phenyl]-2-methylpropanoyl}amino)benzoic acid], the activity at 2.5 µM is 53.1% and the activity at 10 µM was determined as 5.9%.

As for `O=C(O)c1cc(Cl)ccc1NC(=O)c1cccc2c1Cc1ccccc1-2` [Example 38, 5-chloro-2-[(9H-fluoren-1-ylcarbonyl)amino]benzoic acid], the activity at 2.5 µM is 94.8% and the activity at 10 µM is 2.5%.

Turning to `O=C(Nc1ccc(Cl)cc1C(=O)O)c1ccc(C23CC4CC(CC(C4)C2)C3)cc1` [Example 40, 2-({[4-(adamantan-1-yl)phenyl]carbonyl}amino)-5-chlorobenzoic acid], the activity at 2.5 µM worked out at 19.3% and the activity at 10 µM came out at 1.7%.

With `O=C(CC(c1ccccc1)c1ccccc1)Nc1ccc(Cl)cc1C(=O)O` [Example 41, 5-chloro-2-[(3,3-diphenylpropanoyl)amino]benzoic acid], the activity at 2.5 µM is 72.4% and the activity at 10 µM came to 12.9%.

In the case of `O=C(Nc1ccc(Cl)cc1C(=O)O)c1ccc(Oc2ccccc2)cc1` [Example 42, 5-chloro-2-{[(4-phenoxyphenyl)carbonyl]amino}benzoic acid], the activity at 2.5 µM came to 98.6% and the activity at 10 µM is 3.8%.

As for `O=C(Nc1ccc(Cl)cc1C(=O)O)c1cc(C(F)(F)F)cc(C(F)(F)F)c1` [Example 43, 2-({[3,5-bis(trifluoro-methyl)phenyl)carbonyl}amino)-5-chlorobenzoic acid], the activity at 2.5 µM was found to be 98.4% and the activity at 10 µM turned out to be 14.1%.

For the molecule `CC(C)(Oc1cccc(-c2ccoc2)c1)C(=O)Nc1ccc(Cl)cc1C(=O)O` [Example 44, 5-chloro-2-({2-[3-(furan-3-yl)phenoxy]-2-methylpropanoyl}amino)benzoic acid], the activity at 2.5 µM amounted to 97.8% and the activity at 10 µM was found to be 20.4%.

With `O=C(COc1ccc(C23CC4CC(CC(C4)C2)C3)cc1)Nc1ccc(-c2ccoc2)cc1C(=O)O` [Example 47, 2-({[4-(adamantan-1-yl)phenoxy]acetyl}amino)-5-(furan-3-yl)benzoic acid], the activity at 2.5 µM was 9.7% and the activity at 10 µM stood at 0.6%.

In the case of `Cn1c(C(=O)Nc2ccc(Cl)cc2C(=O)O)cc2cc(-c3ccccc3)ccc21` [Example 48, 5-chloro-2-{[(1-methyl-5-phenyl-1H-indol-2-yl)carbonyl]amino}benzoic acid], the activity at 2.5 µM stood at 2.5% and the activity at 10 µM stood at 1.7%.

As for `Cc1ccc(-c2ccc(OCC(=O)Nc3ccc(Cl)cc3C(=O)O)cc2)cc1` [Example 49, 5-chloro-2-({[(4′-methylbiphenyl-4-yl)oxy]acetyl}amino)benzoic acid], the activity at 2.5 µM stood at 82.1% and the activity at 10 µM is 1.1%.

In the case of `Cc1cc(C)cc(-c2ccc(OCC(=O)Nc3ccc(Cl)cc3C(=O)O)cc2)c1` [Example 50, 5-chloro-2-({[(3′,5′-dimethylbiphenyl-4-yl)oxy]acetyl}amino)benzoic acid], the activity at 2.5 µM stood at 58.9% and the activity at 10 µM amounted to 0.1%.

As to `O=C(Cn1ccc2cc(-c3ccccc3)ccc21)Nc1ccc(Cl)cc1C(=O)O` [Example 51, 5-chloro-2-{[(5-phenyl-1H-indol-1-yl)acetyl]amino}benzoic acid], the activity at 2.5 µM amounted to 37.8% and the activity at 10 µM came out at 1.7%.

As to `O=C(Nc1ccc(Cl)cc1C(=O)O)c1ccc(OCC23CC4CC(CC(C4)C2)C3)cc1` [Example 52, 2-({[4-(adamantan-1-ylmethoxy)phenyl]carbonyl}amino)-5-chlorobenzoic acid], the activity at 2.5 µM is 7.2% and the activity at 10 µM was found to be 5.1%.

For the molecule `O=C(COc1cccc(-c2ccco2)c1)Nc1ccc(Cl)cc1C(=O)O` [Example 53, 5-chloro-2-({[3-(furan-2-yl)phenoxy]acetyl}amino)benzoic acid], the activity at 2.5 µM worked out at 95.3% and the activity at 10 µM stood at 21.6%.
